This assay deals with lipoxygenase. Briefly: Lipoxygenase inhibition: release of leucotriene B4 (LTB4) from polymorphonuclear rat leucocytes (PMN) after Ca-ionophor, reverse phase HPLC. The assay is classed as cell-based. Particulars: RP-HPLC, read-out: LO inhibition IC50. As to the method:
The release of leucotriene B4 (LTB4) from polymorphonuclear rat leucocytes (PMN) following addition of substances and a Ca-ionophor was determined by means of reverse phase HPLC by the method of Borgeat, P. et al., Proc. Nat. Acad. Sci. (USA) 76, 2148-2152 (1979) as a measure of lipoxygenase inhibition. The values achieved in this test with some compounds according to the invention are listed by way of example in Table 1: […]
A word on the IC50: it is the midpoint of a concentration-inhibition curve. For `O=C(O)C(c1ccc(OCc2ccc3ccccc3n2)cc1)C1CCCC1` (stereo not drawn) [Example 9, 2-[4-(Quinolin-2-yl-methoxy)phenyl]-2-cyclopentylacetic acid], the IC50 is 0.04 µM. Turning to `O=C(O)C(CC1CCCCC1)c1ccc(OCc2ccc3ccccc3n2)cc1` (stereo not drawn) [Example 8, 2-[4-(Quinolin-2-yl-methoxy)phenyl]-3-cyclohexylpropionic acid], the IC50 stood at 0.01 µM.

Turning to `O=C(O)C(CC1CC1)c1ccc(OCc2ccc3ccccc3n2)cc1` (stereo not drawn) [Example 7, 2-[4-(Quinolin-2-yl-methoxy)phenyl]-3-cyclopropylpropionic acid], the IC50 was 0.14 µM.

Source of the values: patent US4970215A, “Substituted 4-(quinolin-2-yl-methoxy)phenyl-acetic acid derivatives and anti-allergic use thereof” (Bayer Aktiengesellschaft, priority 1988, dated 1990).
